# Patent US12264170B2, “Antimicrobial organosilanes” (TOPIKOS SCIENTIFIC, INC., priority 2019, dated 2025)
# How the values were obtained:
# [1] = test system: Pseudomonas aeruginosa ATCC 27853; experiment: MIC microdilution assay (Example 32); format: cell-based; details: P. aeruginosa ATCC 27853 (quality control); CAMHB; 35±2° C. 18 to 20 hours; two values given
# Method: (§1) Strain IDs starting with “ATCC” were acquired from the American Type Culture Collection (Manassas, VA), strain IDs starting with “Eurofins” were acquired from Eurofins (Herndon, VA), while strain IDs starting with “CDC” were acquired from the Centers for Disease Control and Prevention (Atlanta, GA). All strains were maintained as −80° C. frozen glycerol stocks. S. aureus and P. aeruginosa were grown overnight on Tryptic Soy Agar (TSA) plates at 35±2° C., ambient atmosphere, while S. pyogenes was grown overnight on TSA+5% defibrinated sheep blood at 35±2° C., 5% CO2. C. jejuni was grown for 48 hours on TSA+5% defibrinated sheep blood at 35±2° C., in a microaerophilic environment generated by CampyGen sachet. All fungal species (i.e. C. albicans and C. auris) were grown overnight on Sabouraud Dextrose Agar (SDA) plates at 35±2° C., ambient atmosphere.
# (§2) Test article Compound 1 (batch #7G30A9.203) was stored at 4° C. The antibiotic Tobramycin and antifungal Amphotericin B were used as quality control (QC) compounds for the MIC assay. Stock solutions of 3.2 mg/mL Tobramycin (Sigma-Aldrich, cat #T1783-500MG) and 3.2 mg/mL Amphotericin B (CP Lab Chemicals, cat #TOK-A007-1G) were prepared in sterile ultrapure water.
# (§3) For bacteria strains, a few colonies of each strain were collected with a sterile swab and used to make a McFarland 0.5 standard solution (approximately 1×10^8 CFU/mL) in sterile PBS. The McFarland was then diluted 1:180 in Cation Adjusted Muller-Hinton Broth (CAMHB) for S. aureus and P. aeruginosa. S. pyogenes McFarland was diluted 1:180 in CAMHB+5% defibrinated sheep blood, while C. jejuni McFarland was diluted 1:180 in CAMHB+5% laked horse blood. 90 μL of this inoculum was combined with 10 μL of the 10× test article in a 96-well plate for a final concentration of 1×.
# (§4) Except for C. jejuni, all bacterial-strain MIC 96-well plates were incubated at 35±2° C. for 18 to 20 hours, ambient atmosphere. C. jejuni was incubated at 35±2° C. for 48 hours, under microaerophilic condition. All Candida MIC 96-well plates were incubated at 35±2° C. for 24 to 48 hours, ambient atmosphere, until growth in control wells were observed. After incubation, the 96-well plates were examined visually and on a spectrophotometer at absorbance OD650. MIC is defined as the lowest concentration of a compound in which no visible growth is observed.
# [2] = test system: Pseudomonas aeruginosa CDC 0248; experiment: MIC microdilution assay (Example 32); format: cell-based; details: P. aeruginosa CDC 0248; CAMHB; 35±2° C. 18 to 20 hours; two values given
# Method: as §1, §2, §3, §4
# [3] = test system: Pseudomonas aeruginosa Eurofins 1674623; experiment: MIC microdilution assay (Example 32); format: cell-based; details: P. aeruginosa Eurofins 1674623; CAMHB; 35±2° C. 18 to 20 hours; two values given
# Method: as §1, §2, §3, §4
# [4] = test system: Streptococcus pyogenes Eurofins 2065755; experiment: MIC microdilution assay (Example 32); format: cell-based; details: S. pyogenes Eurofins 2065755; CAMHB+5% defibrinated sheep blood; 35±2° C. 18 to 20 hours; two values given
# Method: as §1, §2, §3, §4
# Enterococcus faecalis = experiment: Disk diffusion susceptibility test; format: cell-based
# Candida albicans = experiment: Disk diffusion susceptibility test; format: cell-based
# Mycoplasma pneumoniae = experiment: Disk diffusion susceptibility test; format: cell-based; details: repeated experiment, FIG. 2
# [5] = test system: Acinetobacter baumannii Eurofins 1674627; experiment: MBC/MFC determination (Example 32); format: cell-based; details: A. baumannii Eurofins 1674627; plated after 18 to 20 hours incubation; two values given
# Method: (§5) 10 μL of liquid from each test condition was plated on the appropriate agar media for each test strain. Except for C. jejuni, all other strains were plated for MBC/MFC after 18 to 20 hours incubation, or until growth in growth control wells were visually observed. MBC for C. jejuni was plated 48 hours after incubation of the 96-well plate. Once the liquid from the 96-well plate has been allowed to air dry in a biosafety cabinet, the agar plates were incubated under the appropriate conditions and colony formation was assessed. MBC/MFC is defined as the lowest concentration of a compound in which no colonies were recovered.
# [6] = test system: Campylobacter jejuni CDC 0413; experiment: MBC/MFC determination (Example 32); format: cell-based; details: C. jejuni CDC 0413; plated 48 hours after incubation; two values given
# Method: as §5
# [7] = test system: Pseudomonas aeruginosa ATCC 27853; experiment: MBC/MFC determination (Example 32); format: cell-based; details: P. aeruginosa ATCC 27853; plated after 18 to 20 hours incubation; two values given
# Method: as §5
# [8] = test system: Pseudomonas aeruginosa CDC 0248; experiment: MBC/MFC determination (Example 32); format: cell-based; details: P. aeruginosa CDC 0248; plated after 18 to 20 hours incubation; two values given
# Method: as §5
# [9] = test system: Candida albicans ATCC 90028; experiment: MBC/MFC determination (Example 32); format: cell-based; details: C. albicans ATCC 90028; plated after 18 to 20 hours incubation or until growth in control wells; two values given
# Method: as §5
# Candida auris CDC 0385 [10] = experiment: MBC/MFC determination (Example 32); format: cell-based; details: C. auris CDC 0385; plated after 18 to 20 hours incubation or until growth in control wells; two values given
# Method: as §5
# [11] = test system: Pseudomonas aeruginosa Eurofins 1674623; experiment: MBC/MFC determination (Example 32); format: cell-based; details: P. aeruginosa Eurofins 1674623; plated after 18 to 20 hours incubation; two values given
# Method: as §5
# [12] = test system: Streptococcus pyogenes Eurofins 2065755; experiment: MBC/MFC determination (Example 32); format: cell-based; details: S. pyogenes Eurofins 2065755; plated after 18 to 20 hours incubation; two values given
# Method: as §5
# Staphylococcus aureus = experiment: Disk diffusion susceptibility test; format: cell-based; details: repeated experiment, FIG. 2
# [13] = test system: Candida albicans ATCC 90028; experiment: MIC microdilution assay (Example 32); format: cell-based; details: C. albicans ATCC 90028 (quality control); RPMI media; 35±2° C. 24 to 48 hours; two values given
# Method: as §1, §2, §3
# (§6) For the yeasts C. albicans and C. auris, a McFarland 0.5 standard solution in sterile PBS was similarly prepared (approximately 1×10^6 CFU/mL) and was subsequently diluted 1:180 in RPMI 1640 media buffered with 0.165 M MOPS at pH 7.0 (herein referred to as “RPMI media”). 90 μL of the Candida inoculum was combined with 10 μL of the 10× test article in a 96-well plate for a final concentration of 1×.
# as §4
# Candida auris CDC 0385 [14] = experiment: MIC microdilution assay (Example 32); format: cell-based; details: C. auris CDC 0385; RPMI media; 35±2° C. 24 to 48 hours; two values given
# Method: as §1, §2, §3, §6, §4
# [15] = test system: Proteus mirabilis and Pseudomonas aeruginosa; experiment: Treatment of ocular infection in a dog; format: in vivo; details: male bull dog, 2% aqueous solution 3 times per day; for examination of the eyes: infection in both eyes
# Method: A male bull dog presented with an infection in both eyes which was cultured and tested positive for Proteus mirabilis and Pseudomonas aeruginosa. The dog was administered a 2% aqueous solution of Compound 1 at a rate of 3 times per day for 7 days. […] On day 6, the dog was reexamined. […] To verify, a swab of the eye was taken and cultured. The culture was negative for both Proteus mirabilis and Pseudomonas aeruginosa.
# Aspergillus niger = experiment: Disk diffusion susceptibility test; format: cell-based
# Fusarium oxysporum = experiment: Disk diffusion susceptibility test; format: cell-based
# [16] = 10 mg/mL, repeated experiment, FIG. 2
# [17] = 100 mg/mL, repeated experiment, FIG. 2
compound,measurement,setting,value
CCCCCCCCCCCCCCCCCC[N+](C)(C)CCC[Si](OCC(CO)(CO)NCCS(=O)(=O)[O-])(OCC(CO)(CO)NCCS(=O)(=O)[O-])OCC(CO)(CO)NCCS(=O)(=O)O.[Cl-].[Na+].[Na+] [Compound 1],MIC,[1],>64 µg/mL
same,MIC,[2],>64 µg/mL
same,MIC,[3],>64 µg/mL
same,MIC,[4],8 µg/mL
same,"inhibition (zone of inhibition), disk diffusion","Enterococcus faecalis; 1 mg/mL, repeated experiment, FIG. 2",complete inhibition
same,"inhibition (zone of inhibition), disk diffusion",Enterococcus faecalis; [16],complete inhibition
same,"inhibition (zone of inhibition), disk diffusion",Enterococcus faecalis; [17],complete inhibition
same,"inhibition (zone of inhibition), disk diffusion","Enterococcus faecalis; 1% aqueous solution, FIG. 1",complete inhibition
same,"inhibition (zone of inhibition), disk diffusion","Enterococcus faecalis; 2% aqueous solution, FIG. 1",complete inhibition
same,"inhibition (zone of inhibition), disk diffusion",Candida albicans; [16],complete inhibition
same,"inhibition (zone of inhibition), disk diffusion",Candida albicans; [17],complete inhibition
same,"inhibition (zone of inhibition), disk diffusion","Candida albicans; 1% aqueous solution, FIG. 1",complete inhibition
same,"inhibition (zone of inhibition), disk diffusion","Candida albicans; 2% aqueous solution, FIG. 1",complete inhibition
same,"inhibition (zone of inhibition), disk diffusion",Mycoplasma pneumoniae; 1 mg/mL,complete inhibition
same,"inhibition (zone of inhibition), disk diffusion",Mycoplasma pneumoniae; 10 mg/mL,complete inhibition
same,"inhibition (zone of inhibition), disk diffusion",Mycoplasma pneumoniae; 100 mg/mL,complete inhibition
same,MBC,[5],64 µg/mL
same,MBC,[6],32 µg/mL
same,MBC,[7],>64 µg/mL
same,MBC,[8],>64 µg/mL
same,MBC,[9],1 µg/mL
same,MBC,Candida auris CDC 0385 [10],2 µg/mL
same,MBC,[11],>64 µg/mL
same,MBC,[12],8 µg/mL
same,"inhibition (zone of inhibition), disk diffusion",Staphylococcus aureus; 1 mg/mL,complete inhibition
same,"inhibition (zone of inhibition), disk diffusion",Staphylococcus aureus; 10 mg/mL,complete inhibition
same,"inhibition (zone of inhibition), disk diffusion",Staphylococcus aureus; 100 mg/mL,complete inhibition
same,MIC,[13],1 µg/mL
same,MIC,Candida auris CDC 0385 [14],1 µg/mL
same,examination of the eyes,[15]; day 2,signs of reduced infection
same,examination of the eyes,[15]; day 6,no sign of infection
same,culture of eye swab for Proteus mirabilis and Pseudomonas aeruginosa,[15]; swab at day 6,negative
same,"inhibition (zone of inhibition), disk diffusion",Aspergillus niger; [16],complete inhibition
same,"inhibition (zone of inhibition), disk diffusion",Aspergillus niger; [17],complete inhibition
same,"inhibition (zone of inhibition), disk diffusion","Aspergillus niger; 1% aqueous solution, FIG. 1",complete inhibition
same,"inhibition (zone of inhibition), disk diffusion","Aspergillus niger; 2% aqueous solution, FIG. 1",complete inhibition
same,"inhibition (zone of inhibition), disk diffusion",Fusarium oxysporum; [16],complete inhibition
same,"inhibition (zone of inhibition), disk diffusion",Fusarium oxysporum; [17],complete inhibition
same,"inhibition (zone of inhibition), disk diffusion","Fusarium oxysporum; 1% aqueous solution, FIG. 1",complete inhibition
same,"inhibition (zone of inhibition), disk diffusion","Fusarium oxysporum; 2% aqueous solution, FIG. 1",complete inhibition
